Source: patent US7381540B2, “Composition for measuring glucose having improved substrate specificity” (Toyo Boseki Kabushiki Kaisha, priority 2005, dated 2008)

Tests used:
[1] = system: modified PQQGDH; assay: Substrate specificity using glucose assay system (ferricyanide reduction, absorbance 420 nm); assay type: biochemical
Description: D-glucose+ferricyanide ion+PQQGDH D-glucono-1,5-lactone+ferrocyanide ion
Specificity to each substrate can be determined by changing D-glucose to other saccharides. The presence of the ferrocyanide ion produced by reduction of the ferricyanide ion was confirmed by measuring the decrease of absorbance at a wavelength of 420 nm by spectrophotometry.
A. […]
B. Potassium ferricyanide solution: 50 mM (0.165 g potassium ferricyanide (molecular weight: 329.25) dissolved in 10 ml of distilled water)
C. PQQGDH solution: 31000 U/ml (approx. 128 mg PQQGDH (Toyobo: GLD-331) dissolved in 5 ml of distilled water)
D. Substrate solution (D-glucose solution or maltose solution): 100 or 400 mM
• 1. The following reaction mixture was prepared in a light shielding bottle, and stored on ice (prepared at use). 48.2 mL of each buffer solution (pH6.5) (A) • 4.0 mL of potassium ferricyanide solution (B) • 0.19 mL of (C) • 2. 2.65 ml of the reaction mixture and 0.3 ml of additive were placed in a test tube (plastic) and pre-warmed for 5 minutes at 37° C. • 3. 0.15 ml of substrate solution (D) were added and mixed gently. • 4. The reduction in the absorbance relative to water at 420 nm was recorded for 1 to 3 minutes with a spectrophotometer while maintaining at a temperature of 37° C., and the ΔOD per minute was calculated from the initial linear portion of the curve (ΔOD test). At the same time, the same procedure was carried out with the exception of adding distilled water instead of glucose solution followed by measurement of the blank (ΔOD blank).
The above-mentioned procedure was carried out at each of the predetermined concentrations shown in Tables 1 to 3 using as additives succinic acid, adipic acid, suberic acid, pimeric acid, potassium chloride, ammonium chloride, diammonium hydrogen citrate, malonic acid, L-lysine, taurine, 3,3-dimethylglutaric acid, malic acid, glutaric acid, calcium glycerate, amino-n-butyric acid, sodium glycolate, sodium α-ketoglutarate, fumaric acid, glycerin, glutamic acid and serine. And the procedure was also carried out for those not containing additives to assess the effects of additives.
Variation in absorbance per unit time was determined by calculating ΔOD/min(ΔOD test−ΔOD blank)
To evaluate whether activity had declined with respect to sugars other than glucose, the ΔOD/min (a) with D-glucose as the substrate solution and the ΔOD/min (b) with the other sugar in place of D-glucose as the substrate solution were measured, and the relative value ((b)/(a)×100) was calculated given 100 as the measurement value with glucose as the substrate.
In each of Tables 3 to 5, in the case the value of the ratio of measured values of maltose and glucose (maltose/glucose) relative to the control (control: no addition) is small, activity with respect to maltose during glucose measurement decreases.

[2] = system: modified PQQGDH; assay: Maltose activity of glucose electrode loaded with modified PQQGDH (oxidation current, potassium ferricyanide mediator); assay type: biochemical, Acinetobacter baumannii strain NCIMB11517; conditions: for Maltose Activity (%): solute 50 mM, pH 5.5, glucose or maltose 4 mM, 0.1 M potassium ferricyanide, +0.35 V, 25° C.; for Maltose Activity of Glucose Electrode: 50 mM solvent, 1 mM calcium chloride, 0.1% Triton X-100
Description: 0.5 g of carbon graphite were placed in a mortar followed by the addition of 0.3 ml of liquid paraffin and kneading with a pestle for 30 minutes to produce a carbon paste. The resulting carbon paste was spread onto a platinum electrode followed by the addition of 10 μl of the modified PQQGDH solution (2,000 U/ml) produced in Example 2 and air drying for 30 minutes at room temperature. A cut cellulose semi-permeable membrane (molecular weight: 8,000) was placed over the dried enzyme electrode and the semi-permeable membrane was immobilized with plastic O-rings. The glucose electrode produced in this manner was then used after preliminarily immersing in the cold reaction solvent for 30 minutes.
The substances listed in Table 1 were used as solutes, and buffers were respectively prepared having a final concentration of 50 mM (pH 5.5). Each of the solvents contained an activator/stabilizer in the form of calcium chloride at 1 mM and surfactant in the form of 0.1% Triton X-100 in addition to the solute listed in Table 1. Potassium ferricyanide was dissolved in each of the produced solvents to a concentration of 0.1 M to prepare reaction solutions.
50 mM phosphoric acid or pimeric acid solution containing 1 mM calcium chloride and 0.1% Triton X-100 (consisting of three types having pH values of 5.0, 6.0 and 7.0, respectively) were prepared. Maltose activity of the glucose electrode was investigated for each according to the method of Example 5.

[3] = system: modified PQQGDH; assay: Substrate specificity using glucose assay system (ferricyanide reduction, absorbance 420 nm); assay type: biochemical; conditions: potassium phosphate buffer pH 7.0
[4] = glutaric acid buffer pH 7.0, reagent 1%, substrate 4.8 mM, control 0.86
[5] = glutaric acid buffer pH 7.0, reagent 1%, substrate 19.2 mM, control 0.94
[6] = phthalic acid buffer pH 7.0, reagent 0.5%, substrate 4.8 mM, control 0.72
[7] = phthalic acid buffer pH 7.0, reagent 0.5%, substrate 19.2 mM, control 0.75
[8] = phthalic acid buffer pH 7.0, reagent 1%, substrate 4.8 mM, control 0.72
[9] = phthalic acid buffer pH 7.0, reagent 1%, substrate 19.2 mM, control 0.75
[10] = phthalic acid buffer pH 7.0, reagent 2%, substrate 4.8 mM, control 0.72
[11] = phthalic acid buffer pH 7.0, reagent 2%, substrate 19.2 mM, control 0.75
[12] = glutaric acid buffer pH 7.0, reagent 0.1%, substrate 4.8 mM, control 0.86
[13] = glutaric acid buffer pH 7.0, reagent 0.1%, substrate 19.2 mM, control 0.94
[14] = reagent 0.5%, substrate 4.8 mM, control 0.85
[15] = reagent 1%, substrate 4.8 mM, control 0.85
[16] = reagent 2%, substrate 4.8 mM, control 0.85
[17] = reagent 2%, substrate 19.2 mM, control 0.93
[18] = potassium phosphate buffer pH 7.0, reagent 0.5%, substrate 19.2 mM, control 0.93
[19] = potassium phosphate buffer pH 7.0, reagent 1%, substrate 19.2 mM, control 0.93
[20] = glutaric acid buffer pH 7.0, reagent 0.33%, substrate 4.8 mM, control 0.86
[21] = glutaric acid buffer pH 7.0, reagent 0.33%, substrate 19.2 mM, control 0.94

Work on NCCS(=O)(=O)O [Taurine] yielded a Maltose/glucose ratio [1, 4] of 0.75, a Maltose/glucose ratio [1, 5] of 0.81 and a Maltose/glucose ratio [1, 6] of 0.71. It also gave a Maltose/glucose ratio [1, 7] of 0.72, a Maltose/glucose ratio [1, 8] of 0.66 and a Maltose/glucose ratio [1, 9] of 0.68. It also gave a Maltose/glucose ratio [1, 10] of 0.62 and a Maltose/glucose ratio [1, 11] of 0.68.
In the case of O=C(O)CCCCC(=O)O [Adipic acid], the “Maltose Activity (%)” value [2] is reported as 20.7%, the Maltose/glucose ratio [1, 12] is reported as 0.73 and the Maltose/glucose ratio [1, 13] is reported as 0.84. For the same molecule, the Maltose/glucose ratio [1, 4] was 0.43, the Maltose/glucose ratio [1, 5] was 0.67 and the Maltose/glucose ratio ([1]; phthalic acid buffer pH 7.0, reagent 0.05%, substrate 4.8 mM, control 0.72) was 0.66. For the same molecule, the Maltose/glucose ratio ([1]; phthalic acid buffer pH 7.0, reagent 0.05%, substrate 19.2 mM, control 0.75) was 0.68, the Maltose/glucose ratio ([1]; phthalic acid buffer pH 7.0, reagent 0.1%, substrate 4.8 mM, control 0.72) was 0.65 and the Maltose/glucose ratio ([1]; phthalic acid buffer pH 7.0, reagent 0.1%, substrate 19.2 mM, control 0.75) was 0.64. For the same molecule, the Maltose/glucose ratio ([1]; phthalic acid buffer pH 7.0, reagent 0.2%, substrate 4.8 mM, control 0.72) was 0.65 and the Maltose/glucose ratio ([1]; phthalic acid buffer pH 7.0, reagent 0.2%, substrate 19.2 mM, control 0.75) was 0.58.
Work on Cl.N [Ammonium chloride] yielded a Maltose/glucose ratio [3, 14] of 0.72, a Maltose/glucose ratio [3, 15] of 0.58 and a Maltose/glucose ratio [3, 16] of 0.43. For the same molecule, the Maltose/glucose ratio [3, 17] was 0.70, the Maltose/glucose ratio [1, 4] was 0.56 and the Maltose/glucose ratio [1, 5] was 0.71. For the same molecule, the Maltose/glucose ratio [1, 6] was 0.60, the Maltose/glucose ratio [1, 7] was 0.67 and the Maltose/glucose ratio [1, 8] was 0.57. It also gave a Maltose/glucose ratio [1, 9] of 0.59, a Maltose/glucose ratio [1, 10] of 0.52 and a Maltose/glucose ratio [1, 11] of 0.52. The Maltose/glucose ratio [1, 18] was 0.91 and the Maltose/glucose ratio [1, 19] was 0.84.
For O=C(O)CC(O)C(=O)O (racemic) [D,L-malic acid], the “Maltose Activity (%)” value [2] was 18.9%, the Maltose/glucose ratio [1, 12] was 0.57 and the Maltose/glucose ratio [1, 13] was 0.77. For the same molecule, the Maltose/glucose ratio [1, 4] was 0.34 and the Maltose/glucose ratio [1, 5] was 0.40.
O=C(O)CCCCCCC(=O)O [Suberic acid] was tested, and the “Maltose Activity (%)” value [2] was 20.2%, the Maltose/glucose ratio ([1]; glutaric acid buffer pH 7.0, reagent 0.03%, substrate 4.8 mM, control 0.86) was 0.68 and the Maltose/glucose ratio ([1]; glutaric acid buffer pH 7.0, reagent 0.03%, substrate 19.2 mM, control 0.94) was 0.86. For the same molecule, the Maltose/glucose ratio [1, 20] was 0.38, the Maltose/glucose ratio [1, 21] was 0.49 and the Maltose/glucose ratio ([1]; phthalic acid buffer pH 7.0, reagent 0.017%, substrate 4.8 mM, control 0.72) was 0.66. The Maltose/glucose ratio ([1]; phthalic acid buffer pH 7.0, reagent 0.017%, substrate 19.2 mM, control 0.75) was 0.69, the Maltose/glucose ratio ([1]; phthalic acid buffer pH 7.0, reagent 0.033%, substrate 4.8 mM, control 0.72) was 0.67 and the Maltose/glucose ratio ([1]; phthalic acid buffer pH 7.0, reagent 0.033%, substrate 19.2 mM, control 0.75) was 0.62. For the same molecule, the Maltose/glucose ratio ([1]; phthalic acid buffer pH 7.0, reagent 0.066%, substrate 4.8 mM, control 0.72) was 0.70 and the Maltose/glucose ratio ([1]; phthalic acid buffer pH 7.0, reagent 0.066%, substrate 19.2 mM, control 0.75) was 0.55.
For O=C(O)CCCC(=O)O [Glutaric acid], the “Maltose Activity (%)” value [2] was 22.1%, the Maltose/glucose ratio [1, 12] was 0.65 and the Maltose/glucose ratio [1, 13] was 0.81. The Maltose/glucose ratio [1, 4] was 0.34 and the Maltose/glucose ratio [1, 5] was 0.54.
With O=C(O)/C=C/C(=O)O [Fumaric acid] the Maltose/glucose ratio [1, 4] was 0.68 and the Maltose/glucose ratio [1, 5] was 0.88.
In the case of O=C(O)CCC(=O)C(=O)O [2-ketoglutaric acid], the “Maltose Activity (%)” value [2] is reported as 19.3%.
With O=C(O)CC(O)(CC(=O)O)C(=O)O [Citric acid] the “Maltose Activity (%)” value [2] was 23.4%.
In the case of CC(=O)O [Acetic acid, reference compound], the “Maltose Activity (%)” value [2] is reported as 35.5%.
For N[C@H](CCC(=O)O)C(=O)O [D-glutamic acid], the Maltose/glucose ratio [1, 12] was 0.73 and the Maltose/glucose ratio [1, 13] was 0.89.
[Cl-].[K+] [Potassium chloride] showed a Maltose/glucose ratio [1, 6] of 0.66, a Maltose/glucose ratio [1, 7] of 0.71 and a Maltose/glucose ratio [1, 8] of 0.67. It also gave a Maltose/glucose ratio [1, 9] of 0.64, a Maltose/glucose ratio [1, 10] of 0.60 and a Maltose/glucose ratio [1, 11] of 0.60.
Cl.NCCCC[C@H](N)C(=O)O [L-lysine hydrochloride] was tested, and the Maltose/glucose ratio [3, 14] was 0.78, the Maltose/glucose ratio [3, 15] was 0.71 and the Maltose/glucose ratio [3, 16] was 0.66. For the same molecule, the Maltose/glucose ratio [3, 17] was 0.85, the Maltose/glucose ratio [1, 4] was 0.65 and the Maltose/glucose ratio [1, 5] was 0.87. For the same molecule, the Maltose/glucose ratio [1, 6] was 0.62, the Maltose/glucose ratio [1, 7] was 0.64 and the Maltose/glucose ratio [1, 8] was 0.61. For the same molecule, the Maltose/glucose ratio [1, 9] was 0.58, the Maltose/glucose ratio [1, 10] was 0.59 and the Maltose/glucose ratio [1, 11] was 0.50. The Maltose/glucose ratio [1, 18] was 0.91 and the Maltose/glucose ratio [1, 19] was 0.93.
In the case of O=C([O-])CO.[Na+] [sodium glycolate], the Maltose/glucose ratio [1, 4] is reported as 0.77 and the Maltose/glucose ratio [1, 5] is reported as 0.92.
In the case of O=C(O)c1ccccc1C(=O)O [Phthalic acid], the “Maltose Activity (%)” value [2] is reported as 4.9%.
NCC(=O)O [Glycine] showed a Maltose/glucose ratio [1, 4] of 0.76 and a Maltose/glucose ratio [1, 5] of 0.93.
O=P(O)(O)O [Phosphoric acid, reference compound] was tested, and the “Maltose Activity of Glucose Electrode” value ([2]; pH 5.0) was 23.7%, the “Maltose Activity of Glucose Electrode” value ([2]; pH 6.0) was 36.8% and the “Maltose Activity of Glucose Electrode” value ([2]; pH 7.0) was 50.8%. For the same molecule, the “Maltose Activity (%)” value [2] was 28.0%.
In the case of O=S(=O)(O)CCN1CCOCC1 [MES, reference compound], the “Maltose Activity (%)” value [2] is reported as 29.6%.
In the case of CC[C@H](N)C(=O)O [L-2-amino-n-butyric acid], the Maltose/glucose ratio [1, 4] is reported as 0.76 and the Maltose/glucose ratio [1, 5] is reported as 0.92.
O=C([O-])C(O)CO.O=C([O-])C(O)CO.[Ca+2] (racemic) [Calcium DL-glycerate] gave a Maltose/glucose ratio [1, 20] of 0.60 and a Maltose/glucose ratio [1, 21] of 0.82.
In the case of N[C@@H](CO)C(=O)O [L-serine], the Maltose/glucose ratio [1, 4] is reported as 0.73 and the Maltose/glucose ratio [1, 5] is reported as 0.87.
N.N.O=C(O)CC(O)(CC(=O)O)C(=O)O [Diammonium hydrogen citrate] gave a Maltose/glucose ratio [3, 14] of 0.64, a Maltose/glucose ratio [3, 15] of 0.52 and a Maltose/glucose ratio [3, 16] of 0.36. The Maltose/glucose ratio [3, 17] was 0.54, the Maltose/glucose ratio [1, 12] was 0.78 and the Maltose/glucose ratio [1, 13] was 0.90. The Maltose/glucose ratio [1, 4] was 0.59, the Maltose/glucose ratio [1, 5] was 0.82 and the Maltose/glucose ratio [1, 6] was 0.79. For the same molecule, the Maltose/glucose ratio [1, 7] was 0.55, the Maltose/glucose ratio [1, 8] was 0.80 and the Maltose/glucose ratio [1, 9] was 0.70. For the same molecule, the Maltose/glucose ratio [1, 10] was 0.89, the Maltose/glucose ratio [1, 11] was 0.63 and the Maltose/glucose ratio [1, 18] was 0.88. The Maltose/glucose ratio [1, 19] was 0.76 and the “activity with respect to maltose compared with the control (in words)” value ([1]; substrate concentration of 4.8 mM, in some cases) was “did not decrease”.
